Measurements as given in EP0717746B1, “PHOSPHINIC ACID DERIVATIVES WITH ANTI-HYPER GLYCEMIC AND/OR ANTI-OBESITY ACTIVITY” (SMITHKLINE BEECHAM PLC, priority 1993, dated 1995).

Molecular target: T1, human β3-adrenoceptor (Homo sapiens, UniProt P13945)
T1 construct: expressed in transfected cells; host or cells: CHO cells (stably transfected subclones); plasma membranes prepared
Experiment: β3-Adrenoceptor-mediated adenylyl cyclase activity in CHO cell plasma membranes
Format: biochemical
Settings: concentration of agonist producing 50 % activation of adenylyl cyclase; CHO cell plasma membranes transfected with the human β3-adrenoceptor; cAMP produced over 20 minutes
Description: Subclones of CHO cells were stably transfected with each of the human β1, β2 and β3-adrenoceptors^1. Cells were then disrupted by immersion in ice-cold lysis buffer (10 mM TRIS, 2mM EDTA , pH 7.4) containing protease inhibitors leupeptin and benzamidine (5 µg / ml) and soyabean trypsin inhibitor (10 µg / ml). Membranes were prepared by the method of Bouvier et. al.^2 and stored in 1 ml aliquots in liquid N2 for future use.
Adenylyl cyclase activity was assayed by the method of Kirkham et. al.^3 by the addition of 40 µl (70 -80 µg protein) to the incubation medium of the above CHO cell plasma membranes transfected with the human β3-adrenoceptor . cAMP produced over 20 minutes was separated from ATP by the method of Salomon et al.^4. Agonist EC50 values and intrinsic activities were expressed as the concentration of agonist producing 50 % activation of adenylyl cyclase and the maximum response produced by each agonist relative to that produced by (-) isoprenaline respectively.

T1 sequence (P13945 whole entry): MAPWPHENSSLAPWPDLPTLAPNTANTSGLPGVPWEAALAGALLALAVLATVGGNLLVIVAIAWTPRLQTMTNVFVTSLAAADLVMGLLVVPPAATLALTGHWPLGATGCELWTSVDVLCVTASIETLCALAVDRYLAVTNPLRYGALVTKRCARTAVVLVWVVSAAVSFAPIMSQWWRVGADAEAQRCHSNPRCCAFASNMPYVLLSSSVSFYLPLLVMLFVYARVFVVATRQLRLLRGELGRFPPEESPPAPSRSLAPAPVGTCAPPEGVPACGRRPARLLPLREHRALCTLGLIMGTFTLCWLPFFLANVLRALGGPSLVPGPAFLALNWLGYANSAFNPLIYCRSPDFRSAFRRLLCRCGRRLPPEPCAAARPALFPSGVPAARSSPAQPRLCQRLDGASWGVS

SMILES: CCOP(=O)(CC)COc1ccc(CC(C)NC[C@H](O)c2ccc(O)c(O)c2)cc1 (some centres unmarked) [Example 2, (RR RS) Ethyl 4-[2-[2-(3,4-dihydroxyphenyl)-2-hydroxyethylamino]propyl]phenoxymethylethylphosphinate]
- EC50: 460 nM

SMILES: CC(Cc1ccc(OCP(=O)(O)c2ccccc2)cc1)NC[C@H](O)c1ccc(O)c(O)c1 (some centres unmarked) [Example 3, (RR RS) 4-[2-[2-(3,4-Dihydroxyphenyl)-2-hydroxyethylamino]propyl]phenoxymethyl phenylphosphinic acid.]
- EC50: 540 nM
